In paper PMC5995969, “Structural basis for the regulation of human 5,10-methylenetetrahydrofolate reductase by phosphorylation and S-adenosylmethionine inhibition” (Nature Communications, 2018):

Experiments:
mouse MTHFR = molecular target: T1, mouse MTHFR (Mus musculus, UniProt Q9WU20); experiment: analytical size exclusion chromatography / DSF; format: binding
T1 sequence (Q9WU20 357-654): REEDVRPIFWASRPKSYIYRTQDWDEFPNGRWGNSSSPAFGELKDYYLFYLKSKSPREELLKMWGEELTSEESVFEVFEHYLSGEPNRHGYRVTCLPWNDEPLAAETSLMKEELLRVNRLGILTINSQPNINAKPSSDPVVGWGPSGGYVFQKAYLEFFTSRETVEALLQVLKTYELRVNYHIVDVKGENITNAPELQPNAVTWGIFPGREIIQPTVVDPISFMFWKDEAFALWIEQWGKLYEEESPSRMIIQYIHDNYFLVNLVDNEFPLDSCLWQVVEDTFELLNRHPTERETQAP

[1] = molecular target: T2, 5,10-methylenetetrahydrofolate reductase (MTHFR) (Homo sapiens, UniProt P42898); experiment: HPLC-based enzyme activity assay; also native MS, DSF and aSEC; format: biochemical; details: read-out: Inhibition (μM) / SAM Ki (95% CI)
T2 construct: HsMTHFR1–656 (phosphorylated, as purified)

[2] = molecular target: T3, 5,10-methylenetetrahydrofolate reductase (MTHFR) (Homo sapiens, UniProt P42898, A368L); experiment: differential scanning fluorimetry; aSEC; format: binding
T3 construct: HsMTHFR348–656
T3 sequence (P42898 348-656 A368L): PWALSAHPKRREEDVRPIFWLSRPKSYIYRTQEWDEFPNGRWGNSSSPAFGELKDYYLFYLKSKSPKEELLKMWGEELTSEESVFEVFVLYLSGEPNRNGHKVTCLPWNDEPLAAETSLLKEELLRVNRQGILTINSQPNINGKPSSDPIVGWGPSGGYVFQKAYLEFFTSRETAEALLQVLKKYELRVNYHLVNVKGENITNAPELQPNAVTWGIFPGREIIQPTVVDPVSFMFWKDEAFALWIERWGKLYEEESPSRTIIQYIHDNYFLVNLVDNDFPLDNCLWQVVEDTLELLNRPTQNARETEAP

| Structure (SMILES) | analytical size exclusion chromatography / DSF (mouse MTHFR) | Ki [1] [µM] | differential scanning fluorimetry; aSEC [2] |
| --- | --- | --- | --- |
| Nc1ncnc2c1ncn2[C@@H]1O[C@H](CSCC[C@H](N)C(=O)O)[C@@H](O)[C@H]1O [SAH, S-adenosylhomocysteine] | A similar pattern of results were observed when using purified recombinant mouse MTHFR of the same protein boundaries |  |  |
| C[S+](CC[C@H](N)C(=O)[O-])C[C@H]1O[C@@H](n2cnc3c(N)ncnc32)[C@H](O)[C@@H]1O (stereo partly shown) [SAM, S-adenosylmethionine] | A similar pattern of results were observed when using purified recombinant mouse MTHFR of the same protein boundaries | 2.7 | p.A368L resulted in protein which retained the ability to bind SAM, but was less sensitive to change |
